In US9675576B2, “Polyenolic zinc-binding agents (pezbins) actively promote inactivation of cancer stem cells and potentiate cytotoxic anti-tumor drug substances” (The Research Foundation for The State University of New York, priority 2012, dated 2017):

Experiments:
[1] = system: prostate CD133+ cells (PPT2 and PC3MM2); assay: MTT cytotoxicity assay, results stated for prostate CD133+ cells without split by line; format: cell-based, human
Experimental: (§1) The CSC-specific cytotoxic effects were studied in two different settings both of which are known to maintain/promote sternness phenotype: adherent to type I collagen cultures and 3D cultures of floating spheroids (Baretton, G. B. 1994; Miyoshi, Y. 2000; Koivisto, P. 1995). The CD133^high/CD44^high cells (1×10^3 cells/well) isolated either from PPT2 or PC3MM2 cell lines were seeded onto the type I collagen-coated 96-well plates, cultured in the MSCGM for 2 days, and the treatment was initiated upon 90% confluency. Paclitaxel, SBT-1214 and CMC2.24 were dissolved in sterile DMSO and then serially diluted in MSCGM. For testing the SBT-1214/CMC2.24 combination efficacy, the regular MSCGM was replaced with treatment medium containing SBT-1214 or Ptx at selected concentration range (from 10 nM to 10 μM) with 30 μM CMC2.24. Treatment medium was removed 24, 48 or 72 hr later, followed by return to the MSCGM. Cell death was analyzed on adherent type I collagen cell cultures with the MTT assay [MTT=3-(4,5-dimethylthiazol-2-yl)-2,5-diphenyltetrazolium bromide] as recommended by manufacturer (Invitrogen). Spheroids were cultured and treated on ULA plates.
(§2) The dose-response cytotoxicity of SBT-1214, CMC2.24/and their combination was evaluated by standard MTT assay (all of the in vitro experiments were repeated at least three times and each measurement for the MMT assay was performed in 4 repeats). The dose-response points were plotted as a percentage of the untreated control, the absorbance of which was considered as 100%. Data were expressed as means±SD for each drug concentration. The in vivo responses to drug treatment were evaluated as changes in tumor volume of drug-treated versus untreated control xenografts induced by particular type of cells. Data were expressed as means±SD for control and drug treated tumors. The statistical significance of differences was determined using Student's t-test. The parameters used were the two-tailed distribution and the paired test. P<0.05 was considered statistically significant.

[2] = system: PPT2 and PC3MM2 cell lines; assay: FACS analysis of CD133 expression after drug treatment; format: cell-based, human
Description: To ensure more reliable isolation of CSCs, cells were labeled with one or several markers conjugated with different fluorescent dyes, including anti-human CD133/2-APC (clone 293C3; Miltenyi Biotec, CA, USA); CD166-PE (clone 105902; R&D Systems, MN, USA); CD44-FITC (clone F10-44-2), CD44-PE (clone F10-44-2; Invitrogen/Biosources, USA); CD44v6-FITC (clone 2F10; R&D Systems, USA), EpCAM-FITC (Biosource, CA, USA), Pan-Keratin (C11)-Alexa Fluor® 488 (Cell Signaling) and all the isotype controls (Chemicon). Antibodies were diluted in buffer containing 5% BSA, 1 mM EDTA and 15-20% blocking reagent (Miltenyi Biotec) to inhibit unspecific binding to non-target cells. After 15 min incubation at 4° C., stained cells were sorted and analyzed with multiparametric flow cytometer BD FACSAria (Becton Dickinson, CA). Alternatively, dissociated cells were centrifuged at 950 g for 5 min at 4° C., rinsed with sterile MACS buffer (Miltenyi Biotec, CA) and labeled with CD133 Abs directly or indirectly conjugated with ferromagnetic beads (Miltenyi Biotec, CA) as recommended by manufacturer.
as §1, with “For testing the SBT-1214/CMC2.24 combination efficacy, the regular MSCGM was replaced with treatment medium containing SBT-1214 or Ptx at selected concentration range (from 10 nM to 10 μM) with 30 μM CMC2.24. Treatment medium was removed 24, 48 or 72 hr later, followed by return to the MSCGM.” left out, “Spheroids were cultured and treated on ULA plates.” left out

[3] = system: CSC-relevant transcription factors in colon cancer HCT116 CD133+ and prostate xPT2 CD133+ cells; assay: PCR array of stem cell-related transcription factors, colon and prostate CD133+ cells; format: cell-based, human; conditions: CMC2.24 as stated in Example 2
Experimental: Stem cell-specific gene expression profiles were studied with the PCR Array assay (SABiosciences, CA) in accordance with the manufacturer's recommendations. Briefly, total RNA was isolated from different cell populations (cancer stem cells expressing high levels of the CD133 and CD44, or whole floating spheroids that are enriched with CSCs) using PARIS kit (Ambion). Up to 1 μg of total RNA was treated with DNase and cDNA was prepared using RT^2 First Strand kit. For each analysis, pairs of the test and control cDNA samples were mixed with RT^2 qPCR Master mix and distributed across the PCR array 96-well plates, each of which contained 84 stem cell-related probes and control housekeeping genes. After cycling with real-time PCR (Opticon MJ Research or ABI 7300, Applied Biosystems), obtained amplification data (fold-changes in Ct values of all the genes) was analyzed with SABiosciences software.

[4] = system: c-Myc, Sox-2 and Oct4; assay: Western blot of key transcription factors; format: cell-based, human
Experimental: (§3) Cells were lysed using Active Motif Nuclear Co-ip kit according to manufacturer's protocol. 20 μg of enriched nuclear and cytoplasmic extracts was subjected to electrophoresis in 10% polyacrylamide gel. The proteins were then transferred to a nitrocellulose membrane and developed with appropriate antibodies.

[5] = system: p53 and p21; assay: Western blot of pro-apoptotic proteins; format: cell-based, human; conditions: CD133+ and bulk PPT2 cells, previously not expressed
Experimental: as §3

[6] = in vivo; cited from earlier work
[7] = system: CD133+ PPT2 cells; format: cell-based, human; conditions: 72 hours, 10 nM-10 μM
Experimental: as §1, §2

[8] = system: CD133+ PC3MM2 cells; assay: MTT cytotoxicity assay, CD133+ PC3MM2 cells on type I collagen; format: cell-based, human; conditions: 72 hours, 10 nM-10 μM
Experimental: as §1, with “For testing the SBT-1214/CMC2.24 combination efficacy, the regular MSCGM was replaced with treatment medium containing SBT-1214 or Ptx at selected concentration range (from 10 nM to 10 μM) with 30 μM CMC2.24. Treatment medium was removed 24, 48 or 72 hr later, followed by return to the MSCGM.” left out, “Spheroids were cultured and treated on ULA plates.” left out
as §2, with “The in vivo responses to drug treatment were evaluated as changes in tumor volume of drug-treated versus untreated control xenografts induced by particular type of cells.” left out, “The parameters used were the two-tailed distribution and the paired test. P<0.05 was considered statistically significant.” left out

[9] = system: CD133hi cells; assay: Number of CD133hi cells after taxol, stemness-promoting cultures (FIG. 1); format: cell-based
Experimental: FIG. 1: The standard anti-cancer drug Taxol increases the ratios (shown by FACS analyses of cells with high expression of CD133) and actual number of CSCs (shown at right graph). CSC-enriched cell populations were cultured and treated in vitro under stemness-promoting condition, i.e. adherent to type I collagen (upper left panels) and as floating 3D spheroids (low left panels) in serum-free stem cell medium (MSCBM, Lonza).
Before any assays, particular cells were isolated using immunomagnetic and FACS cell sorting, characterized with FACS analysis and cultured under the stemness-promoting conditions (repeated cell sorting; serum-free stem cell medium; Lonza; low cell density; type I collagen-coated surfaces; non-adherent culturing on ultra-low adherent plates; Corning).

Structure (SMILES): O=C(/C=C/c1ccc(O)cc1)C(C(=O)/C=C/c1ccc(O)cc1)C(=O)Nc1ccccc1 [CMC2.24]
- effect on cells, higher doses ([1]; 10-40 μM, 72 hr): increasingly cytotoxic
- concentration dependence of effect on prostate CD133+ cells ([1]; single agent): biphasic effects
- effect on cell proliferation, low concentrations ([1]; up to 10 μM, 72 hr): stimulated cell proliferation
- ratios of cells with highest expression of CD133 ([2]; CMC2.24 treatment, FIG. 11C): did not induce an increase
- inhibition of CSC-relevant transcription factors [3]: profound inhibition of the majority
- key TF proteins ([4]; both nuclear and cytoplasmic fractions): dramatic inhibition
- c-Myc and Sox2 expression ([4]; nuclear extracts of CD133+ and bulk PPT2 cells): moderate down-regulation
- expression of p21 and p53 [5]: induced expression
- systemic toxicity [6]: no systemic toxicity

Structure (SMILES): CC(=O)O[C@H]1C(=O)[C@@]2(C)[C@H]([C@H](OC(=O)c3ccccc3)[C@]3(O)C[C@H](OC(=O)[C@H](O)[C@@H](NC(=O)c4ccccc4)c4ccccc4)C(C)=C1C3(C)C)[C@]1(OC(C)=O)CO[C@@H]1C[C@@H]2O [Paclitaxel]
- proliferation of the tumorigenic prostate cancer cells [7]: did not suppress proliferation
- proliferation of the tumorigenic prostate cancer cells [8]: did not suppress proliferation
- cell death ([1]; 10 μM, 48-72 hours): about 40%
- ratios of cells with highest expression of CD133 ([2]; 10 nM to 10 μM, 24 hours, concentration-dependent): increased the ratios
- number of CD133hi cells after treatment ([9]; 3D spheroids): 149%
- number of CD133hi cells after treatment ([9]; type I collagen cultures): 160%
